Assay results as given in paper PMC8291583, “Design, synthesis, and evaluation of 3,7-substituted coumarin derivatives as multifunctional Alzheimer’s disease agents” (Journal of Enzyme Inhibition and Medicinal Chemistry, 2021).
Values joined by “and” are separate entries in the source; they are usually repeats but may differ in a detail not shown here. Equal values may be shown once. Read-outs that look alike come from different tables or passages of the source.

Tests used:
recombinant human MAO-A = target: T1, recombinant human MAO-A (Homo sapiens, UniProt P21397); test: biochemical; conditions: 37 °C
T1 sequence (P21397 1-527): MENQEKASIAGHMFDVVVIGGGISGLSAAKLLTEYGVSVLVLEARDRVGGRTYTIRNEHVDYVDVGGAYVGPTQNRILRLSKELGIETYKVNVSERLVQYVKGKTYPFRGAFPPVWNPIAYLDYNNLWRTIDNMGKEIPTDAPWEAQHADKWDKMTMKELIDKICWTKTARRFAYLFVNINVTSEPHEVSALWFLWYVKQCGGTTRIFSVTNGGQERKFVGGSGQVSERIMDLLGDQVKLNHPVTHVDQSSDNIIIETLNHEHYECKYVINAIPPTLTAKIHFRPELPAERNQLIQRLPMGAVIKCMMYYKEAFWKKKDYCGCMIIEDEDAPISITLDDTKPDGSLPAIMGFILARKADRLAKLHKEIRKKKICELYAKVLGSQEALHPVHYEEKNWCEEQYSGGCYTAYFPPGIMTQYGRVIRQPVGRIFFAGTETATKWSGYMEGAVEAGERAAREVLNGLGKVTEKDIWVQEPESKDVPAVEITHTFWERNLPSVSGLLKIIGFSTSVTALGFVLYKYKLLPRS
Procedure: The stock was then further diluted by factors of ten to produce solutions of 1 mM, 100 µM, 10 µM, 1 µM, and 0.1 µM which would correspond to concentrations of 100 µM, 10 µM, 1 µM, 0.1 µM, and 0.01 µM in the final reaction mixture. A potassium phosphate buffer ([…] 100 mM, pH 7.4, 0.9% w/v NaCl) was prepared and refrigerated until further use. The enzyme stock solutions were prepared by dissolving 2.5 mg of enzyme in 33.33 ml of phosphate buffer to produce stock solutions of 0.075 mg/ml which were stored in aliquots at −80 °C until use. Once in the final reaction mixture, this enzyme solution will have a concentration of 0.0075 mg/ml. […] The fresh substrate was prepared on the day of the assay. The assay was carried out in 2 ml Eppendorf vials. […] Following this, 25 µl of the enzyme stock were added to each vial in 10 s intervals and the vials were incubated at 37 °C for 10 min. […] To stop the reaction at the end of this time 150 hx00B5;l of 2 N NaOH was added and the mixture was shaken. Using a micropipette 80 hx00B5;l of the mixture was transferred to a well in a black 96 well plate. The plate was placed in the fluorescent plate reader and read at an excitation/emission wavelength of 310 nm/410 nm. Each assay was run in triplicate and the data were analysed with Graph Pad Prism 8 software (San Diego, USA).
The MAO inhibitory activity of the compounds was assessed using a fluorometric assay with recombinant human MAO-A and human MAO-B enzymes.

recombinant human MAO-B = recombinant human MAO-B (Homo sapiens, UniProt P27338); test: MAO-B fluorometric assay (kynuramine); format: biochemical; conditions: for IC50: kynuramine 30 µM, 37 °C, read-out: MAO-B IC50
Procedure: . The stock was then further diluted by factors of ten to produce solutions of 1 mM, 100 µM, 10 µM, 1 µM, and 0.1 µM which would correspond to concentrations of 100 µM, 10 µM, 1 µM, 0.1 µM, and 0.01 µM in the final reaction mixture. A potassium phosphate buffer ([…] 100 mM, pH 7.4, 0.9% w/v NaCl) was prepared and refrigerated until further use. The enzyme stock solutions were prepared by dissolving 2.5 mg of enzyme in 33.33 ml of phosphate buffer to produce stock solutions of 0.075 mg/ml which were stored in aliquots at −80 °C until use. […]. The substrate was prepared by dissolving kynuramine in potassium buffer and was prepared as two separate concentrations; […]. The fresh substrate was prepared on the day of the assay. The assay was carried out in 2 ml Eppendorf vials. […] Following this, 25 µl of the enzyme stock were added to each vial in 10 s intervals and the vials were incubated at 37 °C for 10 min. After this time period 15 µl of kynuramine (750 µM for MAO-A and 500 µM for MAO-B) was added at 10 s intervals and further incubated for 20 min. To stop the reaction at the end of this time 150 hx00B5;l of 2 N NaOH was added and the mixture was shaken. Using a micropipette 80 hx00B5;l of the mixture was transferred to a well in a black 96 well plate. The plate was placed in the fluorescent plate reader and read at an excitation/emission wavelength of 310 nm/410 nm. Each assay was run in triplicate and the data were analysed with Graph Pad Prism 8 software (San Diego, USA).
The MAO inhibitory activity of the compounds was assessed using a fluorometric assay with recombinant human MAO-A and human MAO-B enzymes. […].

BuChE from equine serum = target: T2, BuChE from equine serum (Equus caballus, UniProt P81908); test: biochemical
T2 construct: 12 U/ml BuChE from equine serum; from tissue; host or cells: equine serum
Procedure: (§1) Cholinesterase activity is determined using a modified colorimetric method first described by Ellman[40]. […] The stock was then further diluted by factors of ten to produce solutions of 1 mM, 100 µM, 10 µM, 1 µM, and 0.1 µM which corresponds to concentrations of 100 µM, 10 µM, 1 µM, 0.1 µM, and 0.01 µM in the final reaction mixture. The test concentrations were stored in the refrigerator until the day of the assay. Trisma HCl buffer (50 mM, adjusted to pH 8 with 2 N NaOH) was prepared as the buffer and used to prepare enzyme stock solution (22 U/ml for Electrophorus electricus AChE and 12 U/ml BuChE from equine serum), 15 mM acetylthiocholine iodide, 15 mM S-butyrylthiocholine iodide and 1.5 mM DTNB (Ellman’s reagent). The enzyme stock solution was stabilised with 1% bovine serum albumin and stored in aliquots at −80 °C. A clear, flat bottom 96 well plate was used to perform the experiments with each concentration performed in triplicate. Prior to the assay the background absorbance for each compound at the different test concentrations was measured and accounted for when reading the final absorbance. […] Following this, 30 µl of the substrate was added to each well simultaneously using a multi pipette. […] A one-sample t-test was performed on the data to test for statistical significance.

[1] = target: Electrophorus electricus AChE (Electrophorus electricus, UniProt O42275); test: biochemical; conditions: for IC50: 25 °C, pH 8
Procedure: as §1

[2] = kynuramine 45 µM, read-out: MAO-A IC50
[3] = Ellman method, 25 °C, pH 8, read-out: BuChE IC50
[4] = Ellman method, read-out: AChE IC50

T2 sequence (P81908 whole entry): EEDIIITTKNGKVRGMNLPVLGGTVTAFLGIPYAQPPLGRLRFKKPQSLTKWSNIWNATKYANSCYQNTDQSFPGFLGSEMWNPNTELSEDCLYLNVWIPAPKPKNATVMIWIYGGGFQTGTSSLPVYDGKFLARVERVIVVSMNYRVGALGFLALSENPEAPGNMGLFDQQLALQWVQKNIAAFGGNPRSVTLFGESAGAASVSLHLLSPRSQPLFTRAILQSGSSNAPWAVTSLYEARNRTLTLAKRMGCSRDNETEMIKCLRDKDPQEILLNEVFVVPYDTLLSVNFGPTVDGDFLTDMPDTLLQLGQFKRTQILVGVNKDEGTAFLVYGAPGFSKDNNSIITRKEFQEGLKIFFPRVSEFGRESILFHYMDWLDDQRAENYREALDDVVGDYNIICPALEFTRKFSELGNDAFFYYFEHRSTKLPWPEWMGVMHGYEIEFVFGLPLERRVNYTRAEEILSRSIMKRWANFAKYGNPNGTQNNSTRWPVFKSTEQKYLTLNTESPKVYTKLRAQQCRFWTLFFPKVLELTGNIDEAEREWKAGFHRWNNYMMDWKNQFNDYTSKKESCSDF
Sequence of Electrophorus electricus AChE (O42275 24-633): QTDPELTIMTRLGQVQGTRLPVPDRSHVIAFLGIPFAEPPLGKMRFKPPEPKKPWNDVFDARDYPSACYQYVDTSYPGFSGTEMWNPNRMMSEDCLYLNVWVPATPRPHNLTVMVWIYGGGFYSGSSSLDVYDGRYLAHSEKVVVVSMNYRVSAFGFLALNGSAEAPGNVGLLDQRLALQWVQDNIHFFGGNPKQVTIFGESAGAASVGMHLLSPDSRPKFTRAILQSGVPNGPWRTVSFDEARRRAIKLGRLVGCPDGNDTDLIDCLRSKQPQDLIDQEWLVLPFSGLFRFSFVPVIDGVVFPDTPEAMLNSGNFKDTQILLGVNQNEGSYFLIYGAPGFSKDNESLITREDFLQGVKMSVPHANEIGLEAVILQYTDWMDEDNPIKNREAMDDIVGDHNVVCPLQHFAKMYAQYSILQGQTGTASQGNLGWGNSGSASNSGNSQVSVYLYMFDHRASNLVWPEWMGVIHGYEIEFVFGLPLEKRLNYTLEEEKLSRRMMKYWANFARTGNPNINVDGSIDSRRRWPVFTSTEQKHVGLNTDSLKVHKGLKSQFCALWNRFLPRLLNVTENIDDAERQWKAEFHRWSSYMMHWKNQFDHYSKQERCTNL
Sequence of recombinant human MAO-B (P27338 whole entry): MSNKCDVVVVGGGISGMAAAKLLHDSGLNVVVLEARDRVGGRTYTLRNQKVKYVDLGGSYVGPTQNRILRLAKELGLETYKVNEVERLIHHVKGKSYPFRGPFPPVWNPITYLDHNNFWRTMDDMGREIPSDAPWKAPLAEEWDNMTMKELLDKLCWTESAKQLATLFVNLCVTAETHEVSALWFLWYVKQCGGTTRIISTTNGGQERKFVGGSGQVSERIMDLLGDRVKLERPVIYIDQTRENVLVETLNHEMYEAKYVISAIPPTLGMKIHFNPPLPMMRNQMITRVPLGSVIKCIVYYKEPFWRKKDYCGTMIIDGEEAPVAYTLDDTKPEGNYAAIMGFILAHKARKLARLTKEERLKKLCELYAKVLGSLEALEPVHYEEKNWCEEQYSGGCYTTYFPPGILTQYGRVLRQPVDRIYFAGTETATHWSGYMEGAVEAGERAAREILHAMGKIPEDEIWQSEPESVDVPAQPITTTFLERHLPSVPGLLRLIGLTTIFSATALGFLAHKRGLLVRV

Row | SMILES | IC50 (recombinant human MAO-A; [2]) | SI MAO-B (MAO-B selectivity index = IC50(MAO-A)/IC50(MAO-B)) (recombinant human MAO-B) | IC50 (recombinant human MAO-B) [µM] | IC50 (BuChE from equine serum; [3]) [µM] | IC50 [1, 4] | IC50 (recombinant human MAO-A; MAO-A IC50, kynuramine 45 µM) [µM] | IC50 (BuChE from equine serum) [µM] | IC50 ([1]; AChE IC50, Ellman method) [µM] | inhibition at 100 µM ([1]; at 100 µM, read-out: AChE enzyme inhibition) [%]
1 | C#CCNCc1cc2ccc(OCCc3ccccc3)cc2oc1=O [Compound 6, 7-(2-phenylethoxy)-3-{[(prop-2-yn-1-yl)amino]methyl}-2H-1-benzopyran-2-one] | 3.86 µM | 133.2 | 0.029 | > 100 | > 100 µM | – | – | – | –
2 | C#CCNCc1cc2ccc(OC(=O)N(CC)CC)cc2oc1=O [Compound 7, 2-oxo-3-{[(prop-2-yn-1-yl)amino]methyl}-2H-1-benzopyran-7-yl-diethylcarbamate] | – | 205.9 | 0.101 | – | – | 20.8 | > 100 | > 100 | –
3 | O=c1oc2cc(OCCc3ccccc3)ccc2cc1CBr [Compound 4, 3-(bromomethyl)-7-(2-phenylethoxy)-2H-1-benzopyran-2-one] | 0.48 µM and 0.476 µM | – | > 100 | > 100 | > 100 µM | – | – | – | –
4 | CCN(CC)C(=O)Oc1ccc2cc(CBr)c(=O)oc2c1 [Compound 5, 3-(bromomethyl)-2-oxo-2H-1-benzopyran-7-yl-diethylcarbamate] | 0.36 µM and 0.355 µM | 1.05 | 0.333 | 23.3 | ~108 µM and 108 µM | – | – | – | 49
